# Source: patent US12268739B2, “Use of toll-like receptor 2 (TLR-2) agonist for modulating human immune response” (Children's Medical Center Corporation, priority 2018, dated 2025)
# “Also recorded” adds a separate entry of the source.
# Target: T1, human TLR2 (Homo sapiens, UniProt O60603)
# T1 construct: expressed in transfected cells; host or cells: HEK-Blue (human embryonic kidney) cells with an NF-kB-inducible SEAP reporter
# Test: HEK-Blue human TLR cell screening (NF-κB SEAP reporter)
# Assay type: cell-based
# Settings: compounds at 10 μM, fold change over negative controls; listed as 080
# Method: HEK cell screening. Human embryonic kidney (HEK)-Blue cell lines expressing human TLRs (hTLRs) and a secreted embryonic alkaline phosphatase (SEAP) reporter under the control of an NF-κB-inducible promoter were cultured in 96-well plates (50,000-75,000 cells/200 μl/well) and stimulated with the indicated compounds at 10 µM or positive controls. The media added to the wells is designed for detection of NF-κB-induced SEAP expression. After 16-24 hours of incubation optical density (OD) was read at 650 nm on a Molecular Devices SpectraMax 340PC absorbance detector. Positive controls employed in this assay were: heat-killed Listeria monocytogenes (1×10^8 cells/ml) for hTLR2, Poly (I:C) HMW (1 μg/ml) for hTLR3, ? E. coli K12 LPS (100 ng/ml) for hTLR4, S. typhimurium flagellin (100 ng/ml) for hTLR5, CL307 (1 μg/ml) for hTLR7, CL075 (1 μg/ml) for hTLR8 and CpG ODN 2006 (1 μg/ml) for hTLR9.
# T1 sequence (O60603 21-784): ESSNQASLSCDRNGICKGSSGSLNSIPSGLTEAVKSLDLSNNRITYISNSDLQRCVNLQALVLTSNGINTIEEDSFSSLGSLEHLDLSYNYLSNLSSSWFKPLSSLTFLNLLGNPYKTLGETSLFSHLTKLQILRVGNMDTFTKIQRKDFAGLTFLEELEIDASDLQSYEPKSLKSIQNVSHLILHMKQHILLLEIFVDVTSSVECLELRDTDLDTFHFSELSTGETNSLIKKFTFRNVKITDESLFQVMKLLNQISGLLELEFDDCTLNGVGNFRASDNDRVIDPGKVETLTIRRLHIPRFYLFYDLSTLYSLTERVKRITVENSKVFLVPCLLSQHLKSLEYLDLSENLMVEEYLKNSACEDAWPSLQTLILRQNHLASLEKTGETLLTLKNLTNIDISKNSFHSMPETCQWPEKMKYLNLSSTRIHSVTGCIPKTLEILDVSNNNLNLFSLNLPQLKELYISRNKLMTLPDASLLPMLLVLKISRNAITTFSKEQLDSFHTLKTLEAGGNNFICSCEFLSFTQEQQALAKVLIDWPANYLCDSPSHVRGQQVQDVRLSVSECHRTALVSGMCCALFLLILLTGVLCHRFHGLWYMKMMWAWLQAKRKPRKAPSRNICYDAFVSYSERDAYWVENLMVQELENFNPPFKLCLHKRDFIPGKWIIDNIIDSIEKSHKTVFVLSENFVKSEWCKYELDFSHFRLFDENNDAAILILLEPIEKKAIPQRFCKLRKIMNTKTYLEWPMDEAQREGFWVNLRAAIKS
structure (smiles),measurement,value
CNC(=O)c1c(NC(=O)c2ccc(S(=O)(=O)N(C)C)cc2)sc2c1CCC2 [Compound 80],Activation of human TLR2 (NF-κB activation in TLR-expressing HEK-Blue cells),activate human TLR2; also recorded: activated the human TLR2-expressing human embryonic kidney (HEK)-Blue cell line
